Patent US20220273678A1 (priority 2020, published 2022)

Columns and labels:
[1] = system: SARS-CoV-2 Delta variant; format: cell-based; settings: 1000 nM Mito-MES; 1000 nM dTPP; CoQ10 1000-2000 nM
[2] = system: SARS-CoV-2 Beta variant; format: cell-based; settings: for antiviral activity against Beta variant, viral titer assay: hACE2 HEK293T, 1000 nM dTPP, CoQ10 1000-2000 nM
[3] = system: SARS-CoV-2 Delta variant; set-up: species or system mice; settings: mouse, in vivo
[4] = system: SARS-CoV-2 Beta; experiment: microbe, parasite or virus in culture; format: cell-based; settings: Severe acute respiratory syndrome coronavirus 2, Calu-3
[5] = system: SARS-CoV-2 Delta variant; experiment: microbe, parasite or virus in culture; format: cell-based; settings: Severe acute respiratory syndrome coronavirus 2, Calu-3
[6] = system: SARS-CoV-2 Beta variant; set-up: species or system mice; settings: mouse, in vivo

SMILES	antiviral activity against Delta variant in ALI lung cultures [1]	antiviral activity against Beta variant, viral titer assay [2]	SARS-CoV-2 N protein in lungs, ELISA [3]	reduction of viral titer relative to vehicle ([3]; po, 20 mg/kg)	IC50 [4]	IC50 [5]	time-of-addition study, intracellular N protein [2]	IL-lb, IL-6, TNFa in the lung [6]	cleaved caspase 3 in lung, immunofluorescence [6]	frequency of NK cells in lungs [6]	histopathology: lung inflammation and tissue damage [6]
COC1=C(OC)C(=O)C(C/C=C(\C)CC/C=C(\C)CC/C=C(\C)CC/C=C(\C)CC/C=C(\C)CC/C=C(\C)CC/C=C(\C)CC/C=C(\C)CC/C=C(\C)CCC=C(C)C)=C(C)C1=O [CoQ10, Coenzyme Q10]	only higher concentrations (1000-2000 nM)	only higher concentrations (1000-2000 nM)	–	–	–	–	–	–	–	–	–
COC1=C(OC)C(=O)C(CCCCCCCCCC[P+](c2ccccc2)(c2ccccc2)c2ccccc2)=C(C)C1=O.CS(=O)(=O)[O-] [Mito-MES, 10-(4,5-dimethoxy-2-methyl-3,6-dioxo-1,4-cyclohexadienyl) decyl triphenylphosphonium methanesulfonate]	inhibited SARS-CoV-2 Delta variants in ALI lung cultures	–	further confirmed by ELISA	~3 log units	34 nM	41 nM	also even when added 4 hours after infection	reduction in IL-lb, IL-6, TNFa	inhibited SARS-CoV-2-associated increase in cleaved caspase 3	reduced frequency of NK cells	reduction of lung inflammation and tissue damage
CCCCCCCCCC[P+](c1ccccc1)(c1ccccc1)c1ccccc1.[Br-] [dTPP]	potent antiviral activity	potent antiviral activity	–	–	–	–	reduced SARS-CoV-2 entry and had less impact on SARS-CoV-2 cytoplasmic replication	–	–	–	–
